Patent US20140309295A1, “ANTIEPILEPTIC, HYPOCHOLESTEROLEMIC AND NEUROPROTECTIVE COMPOUND” (NEURON BIOPHARMA, S.A., priority 2009, published 2014)

How the values were obtained:
[1] = system: Aβ(1-40) and Aβ(1-42) secreted by SK-N-MC cells overexpressing APP; test: Secretion of β-amyloid peptide in SK-N-MC cells overexpressing APP (ELISA); format: cell-based, human
Procedure: The assay was performed on human neuroblastoma SK-N-MC cells in culture from the American Type Culture Collection (ATCC), stably transfected with a construct carried by the APP gene (beta-amyloid precursor protein, Gene ID: 351) in isoform 695, which is the most frequent variant expressed in neurons, whereby overexpression of the APP protein is achieved. In all cases strict rules of sterility were followed and the manipulation was performed in class II biological safety cabinets following European standard EN 12469. […]
The cells were incubated (at 37° C. and 5% CO2) with these treatments for 48 hours, 500 μl of conditioned medium then being collected to perform the measurements. […] The two most frequent Aβ species, 1-40 and 1-42, were measured. […] The amount of Aβ(1-40) and Aβ(1-42) of the conditioned medium was analyzed for each treatment by means of ELISA (Enzyme-linked immunosorbent assay), using the “beta amyloid 40 ELISA” and “beta amyloid 42 ELISA” kit (Biosource), following the recommendations of the manufacturer. The results were quantified by using an increasing concentration curve with synthetic peptides. […]

in vitro = details: PAMPA, pH 7.4
[2] = system: human neuroblastoma SK-N-MC cells; test: Protection against neuronal death induced by inhibition of PP1 (okadaic acid), WST-1; format: cell-based; details: 40 μM NST0037; 20 nM okadaic acid
Procedure: The assay was performed on human neuroblastoma SK-N-MC cells in culture from the American Type Culture Collection (ATCC), in all cases strict rules of sterility were followed and the manipulation was performed in class II biological safety cabinets following European standard EN 12469. The cells were maintained in the following culture medium: Minimum Essential Medium Eagle (MEM) supplemented with 1 mM sodium pyruvate, 2 mM L-glutamine, 0.1 mM non-essential amino acids, 0.05 mg/ml gentamicin and 10% fetal bovine serum.
The inhibition caused by compound NST0037 of cell death caused by the treatment with okadaic acid (OA) which inhibits the activity of protein phosphatase 1 (PP1) was analyzed. OA is one of the most used drugs for studying the phosphorylation mechanism of the tau protein, involved in the pathogenesis and progression of AD. The inhibition of PP1 causes cytoskeleton alterations and mitochondrial damage. […]
The cells were incubated (at 37° C. and 5% CO2) with these treatments for 22 hours, after which time the WST-1 reagent (Roche) was added. […] The formazan which is formed can be detected colorimetrically since it has an absorbance of 440 nm. The reading was taken in a plate reader at 440 nm 2 hours after adding the reagent.

[3] = system: Hep G2 (human hepatocarcinoma) line; test: Total cholesterol levels in hepatic cell line; format: cell-based; details: HepG2, acid compounds, 20 hours, absence of FBS
Procedure: To carry out this assay, the compounds were activated with NaOH until the lactone form was completely opened.
Both the Hep G2 (human hepatocarcinoma) line and the SK-N-MC (human neuroblastoma) line were obtained from the American Type Culture Collection (ATCC no. HB-8065 and HTB-10 respectively). In all cases strict rules of sterility were followed and the manipulation was performed in class II biological safety cabinets following European standard EN 12469. The cells maintained in passage were seeded in 96-well plates in MEM supplemented with 10% FBS, 2 mM L-glutamine, 1 mM sodium pyruvate, 0.1 mM non-essential amino acids and 0.05 mg/mL gentamicin. In the case of HepG2, 4×10^4 cells/well were seeded and in the case of SK-N-MC 5×10^4 cells/well were seeded. After 24 hours had elapsed from the seeding, the cells were deprived of FBS for 8 hours. The cells were then incubated with the treatments at various concentrations for 20 hours. After the incubation period, the cells were washed with PBS and lysed with a phosphate buffer with 0.5% Triton X-100. […]
The total cholesterol was quantified by means of enzymatic and fluorometric techniques. […] The fluorescence intensity was determined at 530 nm of excitation and 580 nm of emission by means of a fluorometer. The results were normalized by protein, which was determined by means of the BCA technique.

CCC(CC)C(=O)O[C@H]1C[C@@H](C)C=C2C=C[C@H](C)[C@H](CC[C@@H]3C[C@@H](O)CC(=O)O3)[C@H]21 [NST0037, (1S,2S,6R,8S,8aR)-1,2,6,7,8,8a-hexahydro-3,7-dimethyl-8-[2-[(2R,4R)-tetrahydro-4-hydroxy-6-oxo-2H-pyran-2-yl]ethyl]-1-naphthalenyl-2-ethyl-butyrate]
secreted Aβ(1-40) with respect to control cells ([1]; 10, 40 and 100 μM of NST0037, 48 hours): a reduction is obtained | secreted Aβ(1-42) with respect to control cells ([1]; 10 and 40 μM of NST0037, 48 hours): a reduction is obtained | Papp at 18 h, 100 μM (in vitro): 3.1 ×10⁻⁶ cm/s | protection against death caused by OA [2]: 57% | reduction of total cholesterol levels [3]: more potent than simvastatin
